Source: ChEMBL document CHEMBL3813604, “Two pairs of farnesyl phenolic enantiomers as natural nitric oxide inhibitors from Ganoderma sinense” (Bioorg Med Chem Lett, 2016)

tested on: RAW264.7; experiment: Antiinflammatory activity in mouse RAW264.7 cells assessed as inhibition of LPS-induced nitric oxide production after 24 hrs by Griess assay; assay type: functional, cell-based; details: RAW264.7, 24 h

SMILES	IC50
CO[C@@]1(c2cc(O)cc(O)c2)C=C(CC/C=C(\CO)CC/C=C(\C)COC(=O)/C=C/c2ccc(O)cc2)C(=O)O1	1510 nM
CO[C@]1(c2cc(O)cc(O)c2)C=C(CC/C=C(\CO)CC/C=C(\C)COC(=O)/C=C/c2ccc(O)cc2)C(=O)O1	2260 nM
C[C@]12CCC(=O)C=C1CC[C@@H]1[C@@H]2[C@@H](O)C[C@@]2(C)[C@H]1CC[C@]2(O)C(=O)CO [HYDROCORTISONE]	58800 nM

These reach a lower IC50. Values come first.

IC50	SMILES
1150 nM	C/C(=C\CC/C(=C/CCC1=C[C@@H](c2cc(O)ccc2O)OC1=O)CO)COC(=O)/C=C/c1ccc(O)cc1
1420 nM	C/C(=C\CC/C(=C/CCC1=C[C@H](c2cc(O)ccc2O)OC1=O)CO)COC(=O)/C=C/c1ccc(O)cc1
